Patent US20250223300A1, “MACROCYCLIC COMPOUND AND PHARMACEUTICAL COMPOSITION AND USE THEREOF” (BETTA PHARMACEUTICALS CO., LTD, priority 2022, published 2025)

Tests used:
Assay type in all cases: cell-based
[1] = target: Ba/F3 (EGFR L858R/T790M/C797S) (Homo sapiens, UniProt P00533, T790M/C797S/L858R, cells depend on it); assay: Cell proliferation inhibitory activity assay, Ba/F3 EGFR L858R/T790M/C797S; details: cell proliferation inhibition, 72 hours, luminescence; read-out: Ba/F3 cells overexpressing different EGFR mutations IC50 (nM) L858R/T790M/C797S
Chain of Ba/F3 (EGFR L858R/T790M/C797S) (P00533 whole entry T790M/C797S/L858R): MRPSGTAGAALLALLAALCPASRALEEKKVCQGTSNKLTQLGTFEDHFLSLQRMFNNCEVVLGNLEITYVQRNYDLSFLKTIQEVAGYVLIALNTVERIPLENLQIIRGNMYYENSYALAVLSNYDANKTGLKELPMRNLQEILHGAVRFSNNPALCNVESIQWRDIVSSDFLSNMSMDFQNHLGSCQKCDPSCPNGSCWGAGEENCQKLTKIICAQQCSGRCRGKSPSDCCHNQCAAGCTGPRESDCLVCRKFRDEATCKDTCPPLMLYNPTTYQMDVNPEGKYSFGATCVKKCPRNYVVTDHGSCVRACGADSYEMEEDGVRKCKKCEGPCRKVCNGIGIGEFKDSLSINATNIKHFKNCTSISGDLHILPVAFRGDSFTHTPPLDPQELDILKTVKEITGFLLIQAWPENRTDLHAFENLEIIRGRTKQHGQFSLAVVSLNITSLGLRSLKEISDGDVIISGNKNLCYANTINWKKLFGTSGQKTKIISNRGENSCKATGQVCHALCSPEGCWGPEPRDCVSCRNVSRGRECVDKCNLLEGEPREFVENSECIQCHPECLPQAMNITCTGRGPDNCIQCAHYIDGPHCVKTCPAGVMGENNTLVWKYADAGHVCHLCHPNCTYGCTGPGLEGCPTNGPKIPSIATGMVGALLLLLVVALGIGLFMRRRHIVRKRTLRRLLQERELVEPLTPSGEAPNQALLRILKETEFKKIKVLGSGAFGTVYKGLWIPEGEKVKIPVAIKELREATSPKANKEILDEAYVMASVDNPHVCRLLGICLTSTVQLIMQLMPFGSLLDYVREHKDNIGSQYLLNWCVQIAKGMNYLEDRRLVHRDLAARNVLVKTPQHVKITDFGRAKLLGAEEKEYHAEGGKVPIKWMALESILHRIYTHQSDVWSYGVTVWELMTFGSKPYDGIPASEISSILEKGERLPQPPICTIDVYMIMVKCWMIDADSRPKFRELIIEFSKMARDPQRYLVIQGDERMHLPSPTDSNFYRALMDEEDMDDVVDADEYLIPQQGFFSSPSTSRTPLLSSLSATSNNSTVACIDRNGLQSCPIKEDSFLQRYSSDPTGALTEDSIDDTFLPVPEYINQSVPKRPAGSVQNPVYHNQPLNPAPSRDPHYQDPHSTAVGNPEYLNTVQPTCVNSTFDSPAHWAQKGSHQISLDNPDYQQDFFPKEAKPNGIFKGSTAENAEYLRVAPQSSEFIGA
Protocol: (§1) Suspension cells Ba/F3 (EGFR. Dell9/T790M/C797S), Ba/F3 (EGFR L858R/T790M/C797S), Ba/F3 (EGFR Del19/C797S), and Ba/F3 (EGFR L858R/C797S) overexpressing different EGFR mutations were cultured in PRMI 1640 containing 10% FBS and 1% PS, and adherent cells A431 carrying EGFR WT were cultured in DMEM containing 10% FBS and 1% PS. The experimental steps for compound activity detection are as follows: • (1) Take adherent cells in the logarithmic growth phase, digest them with trypsin count them, and then inoculate them into a 96-well plate at a certain density. Incubate them overnight at 37° C. and 5% CO2 to allow them to adhere.
(§2) Y=minimum+([…])/(1+10^((Log IC50−X)*slope)); • X: logarithm of compound concentration; Y: cell survival inhibition rate.

Ba/F3 (EGFR Del19/C797S) = Ba/F3 (EGFR Del19/C797S) (Homo sapiens, UniProt P00533, C797S, cells depend on it, form not given); assay: Cell proliferation inhibitory activity assay, Ba/F3 EGFR Del19/C797S; details: cell proliferation inhibition, 72 hours, luminescence; read-out: Ba/F3 cells overexpressing different EGFR mutations IC50 (nM) Del19/C797S
Chain of Ba/F3 (EGFR Del19/C797S) (P00533 with tags, fused parts or gaps DEL746-750/C797S, form open): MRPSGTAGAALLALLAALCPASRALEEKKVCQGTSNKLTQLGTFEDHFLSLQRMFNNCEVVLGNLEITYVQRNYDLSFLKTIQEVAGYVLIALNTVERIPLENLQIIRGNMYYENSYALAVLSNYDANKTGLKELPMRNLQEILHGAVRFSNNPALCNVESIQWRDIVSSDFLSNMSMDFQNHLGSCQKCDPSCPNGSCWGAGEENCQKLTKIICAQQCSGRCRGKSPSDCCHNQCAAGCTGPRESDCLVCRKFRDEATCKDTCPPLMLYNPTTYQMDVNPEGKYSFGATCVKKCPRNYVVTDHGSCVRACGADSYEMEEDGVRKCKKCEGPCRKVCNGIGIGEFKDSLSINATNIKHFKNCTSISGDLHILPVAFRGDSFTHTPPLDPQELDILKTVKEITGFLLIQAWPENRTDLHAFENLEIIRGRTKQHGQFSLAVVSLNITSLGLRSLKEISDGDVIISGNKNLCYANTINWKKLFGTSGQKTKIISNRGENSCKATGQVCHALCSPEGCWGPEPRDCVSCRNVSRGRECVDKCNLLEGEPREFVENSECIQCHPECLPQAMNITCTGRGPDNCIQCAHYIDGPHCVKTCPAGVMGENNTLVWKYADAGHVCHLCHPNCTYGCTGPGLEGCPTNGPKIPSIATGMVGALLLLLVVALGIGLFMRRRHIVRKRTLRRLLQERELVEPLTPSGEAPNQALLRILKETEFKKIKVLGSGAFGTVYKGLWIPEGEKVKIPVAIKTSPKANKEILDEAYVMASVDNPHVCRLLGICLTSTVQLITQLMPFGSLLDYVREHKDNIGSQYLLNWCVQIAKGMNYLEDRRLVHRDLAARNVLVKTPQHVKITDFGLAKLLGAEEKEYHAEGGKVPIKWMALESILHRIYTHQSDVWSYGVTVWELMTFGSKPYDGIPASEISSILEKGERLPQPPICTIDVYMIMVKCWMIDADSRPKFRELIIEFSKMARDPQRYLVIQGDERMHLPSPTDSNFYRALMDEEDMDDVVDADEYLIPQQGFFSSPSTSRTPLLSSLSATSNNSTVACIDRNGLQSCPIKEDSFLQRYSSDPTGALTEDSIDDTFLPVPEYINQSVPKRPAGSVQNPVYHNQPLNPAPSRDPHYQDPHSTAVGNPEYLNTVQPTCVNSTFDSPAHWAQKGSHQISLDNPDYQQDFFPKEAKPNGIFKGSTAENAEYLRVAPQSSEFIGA
Protocol: as §1, §2

Ba/F3 (EGFR L858R/C797S) = Ba/F3 (EGFR L858R/C797S) (Homo sapiens, UniProt P00533, C797S/L858R, cells depend on it); assay: Cell proliferation inhibitory activity assay, Ba/F3 EGFR L858R/C797S; details: cell proliferation inhibition, 72 hours, luminescence; read-out: Ba/F3 cells overexpressing different EGFR mutations IC50 (nM) L858R/C797S
Chain of Ba/F3 (EGFR L858R/C797S) (P00533 whole entry C797S/L858R): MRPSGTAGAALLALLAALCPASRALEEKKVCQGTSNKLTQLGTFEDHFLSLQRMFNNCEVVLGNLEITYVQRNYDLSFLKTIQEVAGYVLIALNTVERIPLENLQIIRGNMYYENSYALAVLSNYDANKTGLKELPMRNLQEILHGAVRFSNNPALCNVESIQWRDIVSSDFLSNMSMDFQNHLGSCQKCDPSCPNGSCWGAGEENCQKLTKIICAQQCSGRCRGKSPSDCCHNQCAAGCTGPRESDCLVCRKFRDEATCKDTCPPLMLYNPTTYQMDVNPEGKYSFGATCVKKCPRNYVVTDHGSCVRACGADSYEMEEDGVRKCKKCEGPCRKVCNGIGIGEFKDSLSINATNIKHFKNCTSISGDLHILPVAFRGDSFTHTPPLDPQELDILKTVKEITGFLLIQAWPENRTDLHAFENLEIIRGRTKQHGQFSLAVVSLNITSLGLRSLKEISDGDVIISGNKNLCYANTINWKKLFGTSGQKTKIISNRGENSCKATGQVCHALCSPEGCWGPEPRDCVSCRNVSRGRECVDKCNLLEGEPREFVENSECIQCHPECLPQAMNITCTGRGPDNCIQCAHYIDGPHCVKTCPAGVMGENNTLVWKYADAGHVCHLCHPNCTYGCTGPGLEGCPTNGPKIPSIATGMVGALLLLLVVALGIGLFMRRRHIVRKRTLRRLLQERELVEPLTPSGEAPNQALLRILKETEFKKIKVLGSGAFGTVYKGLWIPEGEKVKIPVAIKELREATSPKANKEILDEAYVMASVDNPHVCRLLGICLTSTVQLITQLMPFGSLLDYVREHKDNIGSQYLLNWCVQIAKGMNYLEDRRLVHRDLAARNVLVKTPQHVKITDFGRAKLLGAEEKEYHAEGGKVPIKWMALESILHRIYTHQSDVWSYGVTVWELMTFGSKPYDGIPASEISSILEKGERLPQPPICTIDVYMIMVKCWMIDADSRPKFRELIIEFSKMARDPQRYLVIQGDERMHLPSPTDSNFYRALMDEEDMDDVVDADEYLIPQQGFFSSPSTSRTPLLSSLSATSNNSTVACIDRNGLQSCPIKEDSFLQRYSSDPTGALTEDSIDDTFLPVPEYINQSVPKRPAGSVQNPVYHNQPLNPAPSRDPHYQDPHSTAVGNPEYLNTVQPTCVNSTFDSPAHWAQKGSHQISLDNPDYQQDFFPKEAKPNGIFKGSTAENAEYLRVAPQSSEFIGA
Protocol: as §1, §2

[2] = system: A431 cell carrying EGFR WT; assay: Cell proliferation inhibitory activity assay, A431; details: Homo sapiens, A-431; cell proliferation inhibition, 72 hours, luminescence
Protocol: as §1, §2

[3] = target: Ba/F3 cells overexpressing EGFR Del19/T790M/C797S (Homo sapiens, UniProt P00533, T790M/C797S, cells depend on it, form not given); assay: Cell proliferation inhibitory activity assay, Ba/F3 EGFR Del19/T790M/C797S; details: cell proliferation inhibition, 72 hours, luminescence; read-out: Ba/F3 cells overexpressing different EGFR mutations IC50 (nM) Del19/T790M/C797S
Chain of Ba/F3 cells overexpressing EGFR Del19/T790M/C797S (P00533 with tags, fused parts or gaps DEL746-750/T790M/C797S, form open): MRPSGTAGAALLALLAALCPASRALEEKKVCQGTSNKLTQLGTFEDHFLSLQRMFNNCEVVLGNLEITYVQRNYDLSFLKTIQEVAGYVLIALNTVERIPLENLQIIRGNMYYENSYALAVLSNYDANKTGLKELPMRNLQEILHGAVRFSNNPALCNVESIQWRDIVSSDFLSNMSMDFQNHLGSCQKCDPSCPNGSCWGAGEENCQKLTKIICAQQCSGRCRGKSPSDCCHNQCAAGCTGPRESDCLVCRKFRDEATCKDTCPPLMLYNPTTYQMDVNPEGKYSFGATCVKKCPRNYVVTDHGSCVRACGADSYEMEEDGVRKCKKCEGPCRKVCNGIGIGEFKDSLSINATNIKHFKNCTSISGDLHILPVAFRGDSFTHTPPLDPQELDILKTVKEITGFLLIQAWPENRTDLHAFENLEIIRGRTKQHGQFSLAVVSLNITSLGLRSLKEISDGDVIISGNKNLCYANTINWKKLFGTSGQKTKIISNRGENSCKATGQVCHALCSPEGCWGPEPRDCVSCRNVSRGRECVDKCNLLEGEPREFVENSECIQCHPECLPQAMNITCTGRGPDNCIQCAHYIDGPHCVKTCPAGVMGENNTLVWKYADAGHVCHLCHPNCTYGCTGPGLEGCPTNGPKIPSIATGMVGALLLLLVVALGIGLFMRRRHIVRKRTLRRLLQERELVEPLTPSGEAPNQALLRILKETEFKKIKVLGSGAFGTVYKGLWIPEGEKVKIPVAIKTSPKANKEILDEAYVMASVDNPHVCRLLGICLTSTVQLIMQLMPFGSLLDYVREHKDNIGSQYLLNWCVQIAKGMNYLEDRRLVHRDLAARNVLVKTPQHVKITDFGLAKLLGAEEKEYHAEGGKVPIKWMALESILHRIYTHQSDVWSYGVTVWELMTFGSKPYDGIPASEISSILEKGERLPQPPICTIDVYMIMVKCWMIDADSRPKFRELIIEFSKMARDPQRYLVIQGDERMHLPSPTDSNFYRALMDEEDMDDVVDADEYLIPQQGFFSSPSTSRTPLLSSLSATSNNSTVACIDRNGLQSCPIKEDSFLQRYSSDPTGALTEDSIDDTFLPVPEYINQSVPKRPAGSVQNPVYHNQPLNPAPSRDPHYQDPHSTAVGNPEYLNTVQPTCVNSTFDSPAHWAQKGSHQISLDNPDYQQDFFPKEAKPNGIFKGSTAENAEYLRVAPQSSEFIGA
Protocol: as §1, §2

Row | GI50 [1] | GI50 (Ba/F3 (EGFR Del19/C797S)) | GI50 (Ba/F3 (EGFR L858R/C797S)) | IC50 [2] | GI50 [3] | Compound
1 | 1.1 nM | 0.77 nM | 3.6 nM | 425 nM | 0.73 nM | Cc1cc2cc(n1)-c1cnc(F)cc1OCCC[C@@H](C)Cn1c(nc3ccc(N4CCC5(CCNCC5)CC4)cc31)NC2=O [Example 9, (R)-1^6-fluoro-2^6,7-dimethyl-5^6-(3,9-driazaspiro[3.5]undecan-3-yl)-5^1-11-oxa-4-aza-5(2,1)-benzo[d]imidazola-1(3,4),2(2,4)-dipyridinacycloundecaphan-3-one]
2 | 3.4 nM | 0.15 nM | 1 nM | 493 nM | 2.2 nM | Cc1cc2cc(n1)-c1cnccc1OCCC[C@@H](C)Cn1c(nc3cc(C)c(N4CCC5(CCN(C)CC5)CC4)cc31)NC2=O [Example 11, (R)-2^6,5^3,7-trimethyl-5^6-(9-methyl-3,9-diazaspiro[5.5]undecan-3-yl)-5^1H-11-oxa-4-aza-5(2.I)-benzo[d]imidazola-1(3,4),2(2,4)-dipyridinacycloundecaphan-3-one]
3 | 1.5 nM | 0.18 nM | 1.8 nM | 805 nM | 0.37 nM | Cc1cc2cc(n1)-c1cnccc1OCCCCCn1c(nc3cc(F)c(N4CCC5(CCN(C)CC5)CC4)cc31)NC2=O [Example 14, 5^5-fluoro-2^6-methyl-5^6-(9-methyl-3,9-diazaspiro[5.5]undecan-3-yl)-5^1H-11-oxa-4-aza-5(2,1)-benzo[d]imidazola-1(3,4),2(2,4)-dipyridinacycloundecaphan-3-one]
4 | 3.7 nM | 0.27 nM | 2.1 nM | 701 nM | 1.6 nM | Cc1cc2cc(n1)-c1cnccc1OCCC[C@@H](C)Cn1c(nc3ccc(N4CCC5(CC4)CCN(C4CC4)CC5)cc31)NC2=O [Example 45, (R)-5^6-(9-cyclopropyl-3,9-diazaspiro[5.5]undecan-3-yl)-2^6,7-dimethyl-5^1H-11-oxa-4-aza-5(2,1)-benzo [d]imidazola-1(3,4),2(2,4)-dipyridinacyclo-undecaphan-3-one]
5 | 1.8 nM | 0.29 nM | 3 nM | 1080 nM | 0.91 nM | Cc1cc2cc(n1)-c1cnccc1OCCCCCn1c(nc3cc(F)c(N4CCC5(CCN(CCF)CC5)CC4)cc31)NC2=O [Example 61, 5^5-fluoro-5^6-(9-(2-fluoroethyl)-3,9-diazaspiro [5.5]undecan-3-yl)-2^6-methyl-5^1H-11-oxa-4-aza-5(2,1)-benzo [d]imidazola-1(3,4),2(2,4)-dipyridinacyclo-undecaphan-3-one]
6 | 1.5 nM | 0.67 nM | 2 nM | 472 nM | 0.5 nM | Cc1cc2cc(n1)-c1cnccc1OCCCCCn1c(nc3cc(F)c(N4CCC5(CC4)CCN(C4COC4)CC5)cc31)NC2=O [Example 63, 5^5-fluoro-2^6-methyl-5^6-(9-(oxetan-3-yl)-3,9-diazaspiro[5.5]undecan-3-yl)-5^1H-11-oxa-4-aza-5(2,1)-benzo [d]imidazola-1(3,4),2(2,4)-dipyridinacyclo-undecaphan-3-one]
7 | 0.08 nM | 0.11 nM | 0.07 nM | 646 nM | 0.07 nM | COCCN1CCC2(CC1)CCN(c1ccc3nc4n(c3c1)CCCCCOc1ccncc1-c1cc(cc(C)n1)C(=O)N4)CC2 [Example 75, 5^6-(9-(2-methoxy-ethyl)-3,9-diazaspiro[5.5]undecan-3-yl)-2^6-methyl-5^1H-11-oxa-4-aza-5(2,1)-benzo[d] imidazola-1(3,4), 2(2,4)-dipyridinacyclo-undecaphan-3-one]
8 | 12 nM | 2.9 nM | 17 nM | 770 nM | 4.7 nM | Cc1cc2cc(n1)-c1cnccc1OCCC[C@@H](C)Cn1c(nc3ccc(N4CCC5(CC4)CCN(C4COC4(C)C)CC5)cc31)NC2=O (stereo partly drawn) [Example 82, (7R)-5^6-(9-(2,2-dimethyloxetan-3-yl)-3,9-diazaspiro[5.5]undecan-3-yl)-2^6,7-dimethyl-5^1H-11-oxa-4-aza-5(2,1)-benzo [d]imidazola-1(3,4),2(2,4)-dipyridinacyclo-undecaphan-3-one]
9 | 4.6 nM | 0.71 nM | 6.5 nM | 1210 nM | 1.8 nM | Cc1cc2cc(n1)-c1cnccc1OCCCCCn1c(nc3ccc(N4CCC5(CC4)CCN(C4CC4)CC5)cc31)NC2=O [Example 89, 5^6-(9-cyclopropyl-3,9-diazaspiro [5.5]undecan-3-yl)-2^6-methyl-5^1H-11-oxa-4-aza-5(2,1)-benzo[d] imidazola-1(3,4),2(2,4)-dipyridinacyclo-undecaphan-3-one]

Continued, compound first:

Row | Compound | GI50 [1] | GI50 (Ba/F3 (EGFR Del19/C797S)) | GI50 (Ba/F3 (EGFR L858R/C797S)) | IC50 [2] | GI50 [3]
10 | Cc1cc2cc(n1)-c1cnccc1OCCCC(C)(C)Cn1c(nc3ccc(N4CCC5(CCN(C)CC5)CC4)cc31)NC2=O [Example 7, 2^6,9,9-trimethyl-5^6-(9-methyl-3,9-diazaspiro[5.5]undecan-3-yl)-5^1H-11-oxa-4-aza-5(2,1)-benzo[d]imidazola-1(3,4),2(2,4)-dipyridinacycloundecaphan-3-one] | 3.7 nM | 4.5 nM | 11 nM | 226 nM | 1.6 nM
11 | COCCCN1CCC2(CC1)CCN(c1ccc3nc4n(c3c1)C[C@H](C)CCCOc1cc(F)ncc1-c1cc(cc(C)n1)C(=O)N4)CC2 [Example 17, 1^6-fluoro-5^6-(9-(3-methoxypropyl)-3,9-diazaspiro[5.5]undecan-3-yl)-2^6-methyl-5^1H-11-oxa-4-aza-5(2,1)-benzo[d]imidazola-1(3,4),2(2,4)-dipyridinacycloundecaphan-3-one] | 4.7 nM | 5 nM | 18 nM | 1470 nM | 1.2 nM
12 | Cc1cc2cc(n1)-c1cnccc1OCCCCCn1c(nc3ccc(N4CCC5(CCN(CCC(N)=O)CC5)CC4)cc31)NC2=O [Example 18, 3-(9-(2^6-methyl-3-oxo-5^1H-11-oxa-4-aza-5(2,1)-benzo[d]imidazola-1(3,4),2(2,4)-dipyridinacycloundecaphane-5^6-yl)-3,9-diazaspiro[5.5]undecan-3-yl)propanamide] | 2.1 nM | 0.5 nM | 3.9 nM | 631 nM | 0.77 nM
13 | Cc1cc2cc(n1)-c1cnccc1OCCCCCn1c(nc3cc(F)c(N4CCC5(CCN(CC6COC6)CC5)CC4)cc31)NC2=O [Example 62, 5^5-fluoro-2^6-methyl-5^6-(9-(oxetan-3-ylmethyl)-3,9-diazaspiro [5.5]undecan-3-yl)-5^1H-11-oxa-4-aza-5(2,1)-benzo[d] imidazola-1(3,4),2(2,4)-dipyridinacyclo-undecaphan-3-one] | 3 nM | 0.57 nM | 3.8 nM | 772 nM | 0.95 nM
14 | Cc1cc2cc(n1)-c1cnccc1OCCCCCn1c(nc3cc(F)c(N4CCC5(CC4)CCN(C4CC4)CC5)cc31)NC2=O [Example 65, 5^6-(9-cyclopropyl-3,9-diazasptro [5.5]undecan-3-yl)-5^5-fluoro-2^6-methyl-5^1H-11-oxa-4-aza-5(2,1)-benzo [d]imidazola-1(3,4),2(2,4)-dipyridinacyclo-undecaphan-3-one] | 2.3 nM | 0.69 nM | 4.6 nM | 1250 nM | 1.1 nM
15 | Cc1cc2cc(n1)-c1cnccc1OCCC[C@@H](C)Cn1c(nc3ccc(N4CCC5(CC4)CCN(C4COC4C)CC5)cc31)NC2=O (stereo partly drawn) [Example 83, (7R)-2^6,7-dimethyl-5^6-(9-(2-methyloxetan-3-yl)-3,9-diazaspiro [5.5]undecan-3-yl)-5^1H-11-oxa-4-aza-5(2,1)-benzo[d] imidazola-1(3,4),2(2,4)-dipyridinacyclo-undecaphan-3-one] | 2 nM | 0.27 nM | 2 nM | 294 nM | 1.3 nM
16 | Cc1cc2cc(n1)-c1cnccc1OCCCCCn1c(nc3ccc(N4CCC5(CCN(CCN(C)C)CC5)CC4)cc31)NC2=O [Example 87, 5^6-(9-(2-(dimethyl-amino)ethyl)-3,9-diazaspiro [5.5]undecan-3-yl)-2^6-methyl-5^1H-11-oxa-4-aza-5(2,1)-benzo [d]imidazola-1(3,4),2(2,4)-dipyridinacyclo-undecaphan-3-one] | 11 nM | 5.8 nM | 21 nM | 1410 nM | 5.4 nM
